Like-named read-outs stand apart in the source and are kept apart here.
Assays:
[1] = cited from earlier work
[2] = reported; cited from earlier work
[3] = Amount of lipophilic active ingredient that the carrier can hold in solution; assay type: physicochemical; settings: Example 7

C=C1CC/C=C(\C)CC[C@@H]2[C@@H]1CC2(C)C [Beta-caryophyllene]
LD50 (Lethal Dose) ([1]; in vivo): > 5000 mg/kg

CCCCCc1cc(O)c2c(c1)OC(C)(CCC=C(C)C)C=C2 (stereo not shown) [CBC, cannabichromene]
effectiveness relative to CBD in the treatment of anxiety and stress [2]: about ten times more effective than CBD

C=C(C)[C@@H]1CCC(C)=C[C@H]1c1c(O)cc(CCCCC)cc1O [CBD, cannabidiol]
keeping CBD in solution in the propylene glycol/glycerine mixture ([3]; control carrier): difficult to maintain 10% by weight | CBD content of solution that could be prepared in the terpene mixture ([3]; terpene mixture): at least 30 % by weight

C=CC(C)(O)CCC=C(C)C (stereo not shown) [Linalool]
LD50 (Lethal Dose) ([1]; in vivo): 3000 mg/kg

C=CC(=C)CCC=C(C)C [Myrcene]
LD50 (Lethal Dose) ([1]; in vivo): > 5000 mg/kg

CN1CCCC1c1cccnc1 (stereo not shown) [nicotine, reference compound]
LD50 (Lethal Dose) ([1]; nicotine as comparison): 40 to 60 mg/kg
